From patent US8076285B2, “Lysobactin amides” (Aicuris GmbH & Co. KG, priority 2006, dated 2011) come the findings set out here.

For the first data set the following is noted: amide bond; 28-membered ring.
“[(3R)-N^2-(Benzyloxycarbonyl)-3-amino-L-phenylalanyl]-[(3R)-3-hydroxy-L-leucyl]-(3-trimethylsilyl-L-alanyl)-D-arginyl-L-isoleucyl-L-allothreonyl-glycyl-L-seryl-L-serine C^1.9-N^3.1-lactam trifluoroacetate” displayed a ring closure, isolated yield of 98%.

Turning to “[(3R)-N^2-(Benzyloxycarbonyl)-3-amino-L-phenylalanyl]-[(3R)-3-hydroxy-L-leucyl]-L-leucyl-D-arginyl-L-isoleucyl-L-seryl-glycyl-L-seryl-L-serine C^1.9-N^3.1-lactam trifluoroacetate”, the ring closure, isolated yield came to 81%.

On to “[(3R)-N^2-(Benzyloxycarbonyl)-3-amino-L-phenylalanyl]-[(3R)-3-hydroxy-L-leucyl]-L-leucyl-D-arginyl-L-isoleucyl-L-allothreonyl-glycyl-[(3S)-3-hydroxy-L-asparaginyl]-L-alanine C^1.9-N^3.1-lactam trifluoroacetate”, for which the ring closure, isolated yield came to 93%.

In turn, “{(3R)-N^2-[(9H-Fluoren-9-ylmethoxy)carbonyl]-3-amino-L-phenylalanyl}-[(3R)-3-hydroxy-L-leucyl]-L-leucyl-D-arginyl-L-isoleucyl-L-allothreonyl-glycyl-[(2S)-2-amino-4-benzyloxycarbonylaminobutyryl]-L-serine C^1.9-N^3.1-lactam trifluoroacetate” gave a ring closure, isolated yield of 66%.

“[(3R)-N^2-(Benzyloxycarbonyl)-3-amino-L-phenylalanyl]-[(3R)-3-hydroxy-L-leucyl]-L-leucyl-D-arginyl-L-isoleucyl-L-allothreonyl-D-alanyl-[(3S)-3-hydroxy-L-asparaginyl]-L-serine C^1.9-N^3.1-lactam trifluoroacetate” displayed a ring closure, isolated yield of 48%.

Substance “[(3R)-N^2-(Benzyloxycarbonyl)-3-amino-L-phenylalanyl]-[(3R)-3-hydroxy-L-leucyl]-L-leucyl-D-arginyl-L-isoleucyl-L-allothreonyl-glycyl-glycyl-L-serine C^1.9-N^3.1-lactam trifluoroacetate” yielded a ring closure, isolated yield of 38%.

Take “[(3R)-N^2-(Benzyloxycarbonyl)-3-amino-L-phenylalanyl]-[(3R)-3-hydroxy-L-leucyl]-L-leucyl-D-arginyl-[3-trimethylsilyl-L-alanlyl]-L-allothreonyl-glycyl-L-seryl-L-serine C^1.9-N^3.1-lactam trifluoroacetate”: the ring closure, isolated yield was 51%.

As to “[(3R)-N^2-(Benzyloxycarbonyl)-3-amino-3-(pyridin-3-yl)-L-alanyl]-[(3R)-3-hydroxy-L-leucyl]-L-leucyl-D-arginyl-L-isoleucyl-L-allothreonyl-glycyl-[(3R)-3-hydroxy-L-asparaginyl]-L-serine C^1.9-N^3.1-lactam bis-trifluoroacetate”, the ring closure, isolated yield turned out to be 61%.

On to “{(3R)-N^2-[(9H-Fluoren-9-ylmethoxy)carbonyl]-3-amino-L-phenylalanyl}-[(3R)-3-hydroxy-L-leucyl]-L-leucyl-[(2R)-2-amino-4-benzyloxycarbonylaminobutyryl]-L-isoleucyl-L-allothreonyl-glycyl-L-seryl-L-serine C^1.9-N^3.1-lactam trifluoroacetate”, for which the ring closure, isolated yield came out at 85%.

Turning to “[(3R)-N^2-(Benzyloxycarbonyl)-3-amino-L-phenylalanyl]-[(3R)-3-hydroxy-L-leucyl]-L-norvalyl-D-arginyl-L-isoleucyl-L-allothreonyl-glycyl-L-seryl-L-serine C^1.9-N^3.1-lactam trifluoroacetate”, the ring closure, isolated yield is 77%.

“{(3R)-N^2-[(9H-Fluoren-9-ylmethoxy)carbonyl]-3-amino-L-phenylalanyl}-[(3R)-3-hydroxy-L-leucyl]-L-leucyl-D-arginyl-L-isoleucyl-L-allothreonyl-glycyl-(N^5-benzyloxycarbonyl-L-ornithyl-L-serine C^1.9-N^3.1-lactam trifluoroacetate” returned a ring closure, isolated yield of 88%.

The substance “[(3R)-N^2-(Benzyloxycarbonyl)-3-amino-L-leucyl]-[(3R)-3-hydroxy-L-leucyl]-L-leucyl-D-arginyl-L isoleucyl-L-allothreonyl-glycyl-[(3R)-3-hydroxy-L-asparaginyl]-L-serine C^1.9-N^3.1-lactam trifluoroacetate” gave a ring closure, isolated yield of 53%.

“[(3R)-N^2-(Benzyloxycarbonyl)-3-amino-L-phenylalanyl]-[(3R)-3-hydroxy-L-leucyl]-[3-tertbutyl-L-alanyl]-D-arginyl-L-isoleucyl-L-allothreonyl-glycyl-L-seryl-L-serine C^1.9-N^3.1-lactam trifluoroacetate” showed a ring closure, isolated yield of 90%.

“[(3R)-N^2-(Benzyloxycarbonyl)-3-amino-L-phenylalanyl]-[(3R)-3-hydroxy-L-leucyl]-L-leucyl-D-arginyl-L-isoleucyl-L-valyl-glycyl-L-seryl-L-serine C^1.9-N^3.1-lactam trifluoroacetate”: the ring closure, isolated yield was 62%.

Take “{(3R)-N^2-[(9H-Fluoren-9-ylmethoxy)carbonyl]-3-amino-L-phenylalanyl}-[(3R)-3-hydroxy-L-leucyl]-L-leucyl-(N^6-benzyloxycarbonyl-D-lysyl)-L-isoleucyl-L-allothreonyl-glycyl-L-seryl-L-serine C^1.9-N^3.1-lactam trifluoroacetate”: the ring closure, isolated yield amounted to 78%.

In turn, “[(3R)-N^2-(Benzyloxycarbonyl)-3-amino-L-phenylalanyl]-[(3R)-3-hydroxy-L-leucyl]-L-leucyl-D-arginyl-L-isoleucyl-L-allothreonyl-glycyl-[(2S)-2-amino-3-(9H-fluoren-9-ylmethoxycarbonyl)aminobutyryl]-L-serine C^1.9-N^3.1-lactam trifluoroacetate” displayed a ring closure, isolated yield of 67%.

In turn, “[(3R)-N^2-(Benzyloxycarbonyl)-3-amino-L-phenylalanyl]-L-threonyl-L-leucyl-D-arginyl-L-isoleucyl-L-allothreonyl-glycyl-L-seryl C^1.9-N^3.1-lactam trifluoroacetate” came in with a ring closure, isolated yield of 73%.

Staying with this data set, now noted: amide bond; 28-membered ring; HATU/NMM; DMF; 0.0 °C.
As for “N^2.1-(Benzyloxycarbonyl)-[(3R)-3-amino-O-methyl-L-tyrosyl)]-[(3R)-3-hydroxy-L-leucyl]-L-leucyl-D-arginyl-L-isoleucyl-L-allothreonyl-glycyl-[(3S)-3-hydroxy-L-asparaginyl]-L-serine C^1.9-N^3.1-lactam trifluoroacetate”, the ring closure, isolated yield turned out to be 33%.

For “[(3R)-N^2-(Benzyloxycarbonyl)-3-amino-L-phenylalanyl]-[(3R)-3-hydroxy-L-leucyl]-L-leucyl-D-arginyl-L-isoleucyl-L-allothreonyl-glycyl-L-alanyl-L-serine C^1.9-N^3.1-lactam trifluoroacetate”, the ring closure, isolated yield stood at 77%.

The same data set, now with this note: amide bond; 28-membered ring; HATU/NMM; DMF; 7.5 mM; 0.0 °C.
“N^2.1-(Benzyloxycarbonyl)-[(3S)-3-amino-O-methyl-D-tyrosyl)]-[(3R)-3-hydroxy-L-leucyl]-L-leucyl-D-arginyl-L-isoleucyl-L-allothreonyl-glycyl-[(3S)-3-hydroxy-L-asparaginyl]-L-serine C^1.9-N^3.1-lactam trifluoroacetate” showed a ring closure, isolated yield of 96%.
